Test results: ChEMBL document CHEMBL4004803, “Syntheses and antibacterial activity of soluble 9-bromo substituted indolizinoquinoline-5,12-dione derivatives” (Eur J Med Chem, 2017)
≈ marks a conversion by molar mass, not a printed value.

Tests used:
Staphylococcus aureus [1] = experiment: Antibacterial activity against methicillin-resistant Staphylococcus aureus 121969 clinical isolate after 20 to 24 hrs by two-fold microdilution method; assay type: functional
Staphylococcus aureus [2] = experiment: Antibacterial activity against methicillin-resistant Staphylococcus aureus 130031 clinical isolate after 20 to 24 hrs by two-fold microdilution method; assay type: functional
[3] = test system: Staphylococcus epidermidis; experiment: Antibacterial activity against Staphylococcus epidermidis ATCC 12228 after 20 to 24 hrs by two-fold microdilution method; assay type: functional
Staphylococcus aureus [4] = experiment: Antibacterial activity against methicillin-resistant Staphylococcus aureus 1111047-1 clinical isolate after 20 to 24 hrs by two-fold microdilution method; assay type: functional
Staphylococcus aureus [5] = experiment: Antibacterial activity against methicillin-resistant Staphylococcus aureus 110910-2 clinical isolate after 20 to 24 hrs by two-fold microdilution method; assay type: functional
Staphylococcus aureus [6] = experiment: Antibacterial activity against methicillin-resistant Staphylococcus aureus 519028 clinical isolate after 20 to 24 hrs by two-fold microdilution method; assay type: functional
Staphylococcus aureus [7] = experiment: Antibacterial activity against methicillin-resistant Staphylococcus aureus 1128040 clinical isolate after 20 to 24 hrs by two-fold microdilution method; assay type: functional
Staphylococcus aureus [8] = experiment: Antibacterial activity against methicillin-resistant Staphylococcus aureus 3250299 clinical isolate after 20 to 24 hrs by two-fold microdilution method; assay type: functional
Staphylococcus aureus [9] = experiment: Antibacterial activity against methicillin-resistant Staphylococcus aureus 1029025 clinical isolate after 20 to 24 hrs by two-fold microdilution method; assay type: functional
Staphylococcus aureus [10] = experiment: Antibacterial activity against methicillin-resistant Staphylococcus aureus 503025 clinical isolate after 20 to 24 hrs by two-fold microdilution method; assay type: functional
Staphylococcus aureus [11] = experiment: Antibacterial activity against methicillin-resistant Staphylococcus aureus 1024010 clinical isolate after 20 to 24 hrs by two-fold microdilution method; assay type: functional
Staphylococcus aureus [12] = experiment: Antibacterial activity against methicillin-resistant Staphylococcus aureus GLH15 clinical isolate after 20 to 24 hrs by two-fold microdilution method; assay type: functional
Staphylococcus aureus [13] = experiment: Antibacterial activity against methicillin-resistant Staphylococcus aureus 316031 clinical isolate after 20 to 24 hrs by two-fold microdilution method; assay type: functional
Staphylococcus aureus [14] = experiment: Antibacterial activity against methicillin-resistant Staphylococcus aureus 19950 clinical isolate after 20 to 24 hrs by two-fold microdilution method; assay type: functional
Staphylococcus aureus [15] = experiment: Antibacterial activity against methicillin-resistant Staphylococcus aureus 214026 clinical isolate after 20 to 24 hrs by two-fold microdilution method; assay type: functional
Staphylococcus aureus [16] = experiment: Antibacterial activity against methicillin-resistant Staphylococcus aureus 1103006 clinical isolate after 20 to 24 hrs by two-fold microdilution method; assay type: functional
Staphylococcus aureus [17] = experiment: Antibacterial activity against methicillin-resistant Staphylococcus aureus 1023043 clinical isolate after 20 to 24 hrs by two-fold microdilution method; assay type: functional
Staphylococcus aureus [18] = experiment: Antibacterial activity against methicillin-resistant Staphylococcus aureus 1024004-2 clinical isolate after 20 to 24 hrs by two-fold microdilution method; assay type: functional
[19] = Solubility of the compound in water at 25 degC measured after shaking for 4 hrs by UV method; assay type: physicochemical; details: water
Staphylococcus aureus [20] = experiment: Antibacterial activity against methicillin-resistant Staphylococcus aureus 125025 clinical isolate after 20 to 24 hrs by two-fold microdilution method; assay type: functional
Staphylococcus aureus [21] = experiment: Antibacterial activity against methicillin-resistant Staphylococcus aureus 1212057-1 clinical isolate after 20 to 24 hrs by two-fold microdilution method; assay type: functional
Staphylococcus aureus [22] = experiment: Antibacterial activity against methicillin-resistant Staphylococcus aureus 122045 clinical isolate after 20 to 24 hrs by two-fold microdilution method; assay type: functional
Staphylococcus aureus [23] = experiment: Antibacterial activity against methicillin-resistant Staphylococcus aureus 1108204 clinical isolate after 20 to 24 hrs by two-fold microdilution method; assay type: functional
Staphylococcus aureus [24] = experiment: Antibacterial activity against methicillin-resistant Staphylococcus aureus 518036 clinical isolate after 20 to 24 hrs by two-fold microdilution method; assay type: functional
Staphylococcus aureus [25] = experiment: Antibacterial activity against methicillin-resistant Staphylococcus aureus 12308 clinical isolate after 20 to 24 hrs by two-fold microdilution method; assay type: functional
Staphylococcus aureus [26] = experiment: Antibacterial activity against methicillin-resistant Staphylococcus aureus 1211026 clinical isolate after 20 to 24 hrs by two-fold microdilution method; assay type: functional
Staphylococcus aureus [27] = experiment: Antibacterial activity against methicillin-resistant Staphylococcus aureus 502025 clinical isolate after 20 to 24 hrs by two-fold microdilution method; assay type: functional
Staphylococcus aureus [28] = experiment: Antibacterial activity against methicillin-resistant Staphylococcus aureus 831024 clinical isolate after 20 to 24 hrs by two-fold microdilution method; assay type: functional
Staphylococcus aureus [29] = experiment: Antibacterial activity against methicillin-resistant Staphylococcus aureus 110328-1 clinical isolate after 20 to 24 hrs by two-fold microdilution method; assay type: functional
Staphylococcus aureus [30] = experiment: Antibacterial activity against methicillin-resistant Staphylococcus aureus 316038 clinical isolate after 20 to 24 hrs by two-fold microdilution method; assay type: functional
Staphylococcus aureus [31] = experiment: Antibacterial activity against methicillin-resistant Staphylococcus aureus 1012029 clinical isolate after 20 to 24 hrs by two-fold microdilution method; assay type: functional
Streptococcus pyogenes = experiment: Antibacterial activity against Streptococcus pyogenes ATCC 19615 after 20 to 24 hrs by two-fold microdilution method; assay type: functional
Staphylococcus aureus [32] = experiment: Antibacterial activity against methicillin-resistant Staphylococcus aureus 112106 clinical isolate after 20 to 24 hrs by two-fold microdilution method; assay type: functional
Staphylococcus aureus [33] = experiment: Antibacterial activity against methicillin-resistant Staphylococcus aureus 305026 clinical isolate after 20 to 24 hrs by two-fold microdilution method; assay type: functional
Staphylococcus aureus [34] = experiment: Antibacterial activity against methicillin-resistant Staphylococcus aureus 1106003 clinical isolate after 20 to 24 hrs by two-fold microdilution method; assay type: functional
Staphylococcus aureus [35] = experiment: Antibacterial activity against methicillin-resistant Staphylococcus aureus GLH14 clinical isolate after 20 to 24 hrs by two-fold microdilution method; assay type: functional
Staphylococcus aureus [36] = experiment: Antibacterial activity against methicillin-resistant Staphylococcus aureus 919205 clinical isolate after 20 to 24 hrs by two-fold microdilution method; assay type: functional
Staphylococcus aureus [37] = experiment: Antibacterial activity against methicillin-resistant Staphylococcus aureus 1214023 clinical isolate after 20 to 24 hrs by two-fold microdilution method; assay type: functional
Staphylococcus aureus [38] = experiment: Antibacterial activity against methicillin-resistant Staphylococcus aureus 20339 clinical isolate after 20 to 24 hrs by two-fold microdilution method; assay type: functional
Staphylococcus aureus [39] = experiment: Antibacterial activity against methicillin-resistant Staphylococcus aureus 121026 clinical isolate after 20 to 24 hrs by two-fold microdilution method; assay type: functional
Staphylococcus aureus [40] = experiment: Antibacterial activity against methicillin-resistant Staphylococcus aureus 109016 clinical isolate after 20 to 24 hrs by two-fold microdilution method; assay type: functional
Staphylococcus aureus [41] = experiment: Antibacterial activity against methicillin-resistant Staphylococcus aureus 110325 clinical isolate after 20 to 24 hrs by two-fold microdilution method; assay type: functional
Staphylococcus aureus [42] = experiment: Antibacterial activity against methicillin-resistant Staphylococcus aureus 109244 clinical isolate after 20 to 24 hrs by two-fold microdilution method; assay type: functional
Staphylococcus aureus [43] = experiment: Antibacterial activity against methicillin-resistant Staphylococcus aureus 1216052 clinical isolate after 20 to 24 hrs by two-fold microdilution method; assay type: functional
Staphylococcus aureus [44] = experiment: Antibacterial activity against methicillin-resistant Staphylococcus aureus 215073 clinical isolate after 20 to 24 hrs by two-fold microdilution method; assay type: functional
Staphylococcus aureus [45] = experiment: Antibacterial activity against methicillin-resistant Staphylococcus aureus 1101016 clinical isolate after 20 to 24 hrs by two-fold microdilution method; assay type: functional
Staphylococcus aureus [46] = experiment: Antibacterial activity against methicillin-resistant Staphylococcus aureus 122710-2 clinical isolate after 20 to 24 hrs by two-fold microdilution method; assay type: functional

Structure (SMILES): CN1CCN(CCCCCCOC(=O)c2c3c(n4cc(Br)ccc24)C(=O)c2ncccc2C3=O)CC1
- MIC (Staphylococcus aureus [1]): 0.125 µg/mL (≈ 0.226 µM)
- MIC (Staphylococcus aureus [2]): 0.25 µg/mL (≈ 0.452 µM)
- MIC [3]: ≤ 0.0078 µg/mL
- MIC (Staphylococcus aureus [4]): 1 µg/mL (≈ 1.81 µM)
- MIC (Staphylococcus aureus [5]): 0.125 µg/mL (≈ 0.226 µM)
- MIC (Staphylococcus aureus [6]): 0.125 µg/mL (≈ 0.226 µM)
- MIC (Staphylococcus aureus [7]): 0.063 µg/mL (≈ 0.114 µM)
- MIC (Staphylococcus aureus [8]): 0.063 µg/mL (≈ 0.114 µM)
- MIC (Staphylococcus aureus [9]): 0.063 µg/mL (≈ 0.114 µM)
- MIC (Staphylococcus aureus [10]): 0.25 µg/mL (≈ 0.452 µM)
- MIC (Staphylococcus aureus [11]): 0.125 µg/mL (≈ 0.226 µM)
- MIC (Staphylococcus aureus [12]): 0.125 µg/mL (≈ 0.226 µM)
- MIC (Staphylococcus aureus [13]): 0.25 µg/mL (≈ 0.452 µM)
- MIC (Staphylococcus aureus [14]): 0.25 µg/mL (≈ 0.452 µM)
- MIC (Staphylococcus aureus [15]): 0.031 µg/mL (≈ 0.056 µM)
- MIC (Staphylococcus aureus [16]): > 16 µg/mL
- MIC (Staphylococcus aureus [17]): 0.125 µg/mL (≈ 0.226 µM)
- MIC (Staphylococcus aureus [18]): 0.25 µg/mL (≈ 0.452 µM)
- solubility thermodynamic at 4 h [19]: 2060 µg/mL (≈ 3720 µM)
- MIC (Staphylococcus aureus [20]): ≤ 0.0078 µg/mL
- MIC (Staphylococcus aureus [21]): 0.031 µg/mL (≈ 0.056 µM)
- MIC (Staphylococcus aureus [22]): 0.063 µg/mL (≈ 0.114 µM)
- MIC (Staphylococcus aureus [23]): 0.5 µg/mL (≈ 0.903 µM)
- MIC (Staphylococcus aureus [24]): 0.125 µg/mL (≈ 0.226 µM)
- MIC (Staphylococcus aureus [25]): 0.063 µg/mL (≈ 0.114 µM)
- MIC (Staphylococcus aureus [26]): 0.125 µg/mL (≈ 0.226 µM)
- MIC (Staphylococcus aureus [27]): 0.25 µg/mL (≈ 0.452 µM)
- MIC (Staphylococcus aureus [28]): ≤ 0.0078 µg/mL
- MIC (Staphylococcus aureus [29]): ≤ 0.0078 µg/mL
- MIC (Staphylococcus aureus [30]): 0.063 µg/mL (≈ 0.114 µM)
- MIC (Staphylococcus aureus [31]): 0.016 µg/mL (≈ 0.0289 µM)
- MIC (Streptococcus pyogenes): 2 µg/mL (≈ 3.61 µM)
- MIC (Staphylococcus aureus [32]): 0.25 µg/mL (≈ 0.452 µM)
- MIC (Staphylococcus aureus [33]): 0.25 µg/mL (≈ 0.452 µM)
- MIC (Staphylococcus aureus [34]): > 16 µg/mL
- MIC (Staphylococcus aureus [35]): 0.063 µg/mL (≈ 0.114 µM)
- MIC (Staphylococcus aureus [36]): 0.125 µg/mL (≈ 0.226 µM)
- MIC (Staphylococcus aureus [37]): 0.063 µg/mL (≈ 0.114 µM)
- MIC (Staphylococcus aureus [38]): 0.5 µg/mL (≈ 0.903 µM)
- MIC (Staphylococcus aureus [39]): 0.031 µg/mL (≈ 0.056 µM)
- MIC (Staphylococcus aureus [40]): 0.031 µg/mL (≈ 0.056 µM)
- MIC (Staphylococcus aureus [41]): ≤ 0.0078 µg/mL
- MIC (Staphylococcus aureus [42]): 0.125 µg/mL (≈ 0.226 µM)
- MIC (Staphylococcus aureus [43]): 16 µg/mL (≈ 28.9 µM)
- MIC (Staphylococcus aureus [44]): 0.063 µg/mL (≈ 0.114 µM)
- MIC (Staphylococcus aureus [45]): 0.25 µg/mL (≈ 0.452 µM)
- MIC (Staphylococcus aureus [46]): 0.063 µg/mL (≈ 0.114 µM)
